In ChEMBL document CHEMBL1201862, “PubChem BioAssay data set” (2004):
Where “and” joins values, the source holds several entries; their conditions need not be identical. Identical values can stand only once.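 Step 1: Grow cells in 96-well plates. Step 2: Expose to compound for 48 hours at 5 concentrations. Step 3: Interpolate endpoints linearly; if unreached, use highest concentration. GI50 marks 50% less growth.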 Calls of active or inactive are those of the source. No stated cut-off is given here; in the data, active = GI50 up to about 1.1 µM and inactive = higher.

How the values were obtained:
Experiment in all cases: DTP human tumour cell line panel, 48 h
T47D = tested on: T47D
BT-549 = tested on: BT-549
Hs-578T = tested on: Hs-578T
SNB-78 = tested on: SNB-78
KM-20L2 = tested on: KM-20L2
DLD-1 = tested on: DLD-1

CN(C)CCNCCN
GI50 (T47D): > 100 µM (inactive) | GI50 (BT-549): > 100 µM (inactive) | GI50 (Hs-578T): > 100 µM (inactive)

Cc1cc(C)c(O)c(Cc2cccc(Cc3cc(C)cc(C)c3O)c2O)c1
GI50 (T47D): > 100 µM (inactive) | GI50 (BT-549): > 100 µM (inactive) | GI50 (Hs-578T): > 100 µM (inactive)

Cc1ccc(-c2cs/c(=N\c3ccccc3)n2NC(=O)c2ccncc2)cc1
GI50 (T47D): 24.5 µM (inactive) | GI50 (BT-549): 30.8 µM (inactive) | GI50 (Hs-578T): 57.5 µM (inactive)

CCOc1ccccc1-c1nc2c(s1)C(=O)c1ccccc1C2=O
GI50 (T47D): 16.9 µM (inactive) | GI50 (Hs-578T): 19 µM (inactive)

OCc1cc2c([nH]c3ccccc32)c(C(O)CO)n1 (stereo not given)
GI50 (T47D): > 100 µM (inactive) | GI50 (BT-549): > 100 µM (inactive) | GI50 (Hs-578T): > 100 µM (inactive)

O=C(/C=C1\Nc2ccc([N+](=O)[O-])cc2N=C1NC12CC3CC(CC(C3)C1)C2)c1ccccc1
GI50 (T47D): > 10 µM (inactive) | GI50 (Hs-578T): 3.76 µM (inactive)

NC(=O)c1ccc[n+](C2=C([N-]S(=O)(=O)c3ccccc3)C(=O)c3ccccc3C2=O)c1
GI50 (T47D): 22.6 µM (inactive) | GI50 (BT-549): 14.8 µM (inactive) | GI50 (Hs-578T): 22 µM (inactive)

CCOC(=O)c1nc2cc(C(F)(F)F)ccc2nc1Nc1ccc(F)cc1
GI50 (T47D): > 100 µM (inactive) | GI50 (BT-549): 25.9 µM (inactive)

CSc1nc2c(c(=O)[nH]1)N=C(c1ccccc1)CC(c1ccccc1)N2 (stereo not given)
GI50 (BT-549): 28.5 µM (inactive)

CC(C)/C(Cl)=N\OC(=O)Nc1cccc(Cl)c1
GI50 (T47D): 26.8 µM (inactive) | GI50 (Hs-578T): 28.3 µM (inactive)

CCOC(=O)c1cc2c3ccn(Cc4ccccc4)c3c3c(C)noc3c2[nH]1
GI50 (T47D): > 100 µM (inactive) | GI50 (BT-549): > 100 µM (inactive) | GI50 (Hs-578T): > 100 µM (inactive)

O=c1[nH]nc(Cc2ccccc2)n1O
GI50 (T47D): > 100 µM (inactive) | GI50 (BT-549): > 100 µM (inactive) | GI50 (Hs-578T): > 100 µM (inactive)

COc1cccc2c1-c1c(OC)cccc1SS2
GI50 (BT-549): 27.6 µM (inactive) | GI50 (Hs-578T): 26.1 µM (inactive)

C=CCOc1ccc(C(=N/NC(=O)c2ccccc2)/N=N/c2ccc(C)cc2)cc1OC
GI50 (T47D): 14.2 µM (inactive) | GI50 (BT-549): 18.3 µM (inactive) | GI50 (Hs-578T): 23.4 µM (inactive)

Cc1nn(C(=O)c2ccncc2)c2c1C(c1ccccc1O)SC(=N)N2 (stereo not given)
GI50 (T47D): > 10 µM (inactive) | GI50 (BT-549): > 10 µM (inactive) | GI50 (Hs-578T): > 10 µM (inactive)

O=C(/C=C\c1ccccc1-c1ccccc1)c1ccccc1
GI50 (T47D): 15.8 µM (inactive) | GI50 (Hs-578T): > 100 µM (inactive)

O=C(Nc1ccc(Cl)cc1)c1cc(S(=O)(=O)Nc2n[nH]c(=O)[nH]2)c(SSc2cc(Cl)c(C(=O)Nc3ccc(Cl)cc3)cc2S(=O)(=O)Nc2n[nH]c(=O)[nH]2)cc1Cl
GI50 (BT-549): > 100 µM (inactive) | GI50 (Hs-578T): > 100 µM (inactive)

COc1cc2c(cc1O)C1Cc3ccc(OC)c(O)c3C(C2)N1C (stereo not given)
GI50 (T47D): > 100 µM (inactive) | GI50 (BT-549): > 100 µM (inactive) | GI50 (Hs-578T): 42.8 µM (inactive)

CCOP(=O)(OCC)OC1c2[nH]ccc2-c2cc(C(=O)OC)[nH]c2C1OC (stereo not given)
GI50 (T47D): 51.8 µM (inactive) | GI50 (BT-549): 36.5 µM (inactive) | GI50 (Hs-578T): 44.2 µM (inactive)

c1csc(-c2sc(-c3ccsc3)cc2Cc2ccsc2)c1
GI50 (T47D): > 10 µM (inactive)

CC(=O)O[C@H]1[C@@H](OC2CCCC2(c2ccccc2)c2ccccc2)O[N+]([O-])=C[C@@H]1c1ccccc1 (stereo not given in full)
GI50 (T47D): 7.52 µM (inactive) | GI50 (BT-549): 4.24 µM (inactive) | GI50 (Hs-578T): 6.53 µM (inactive)

O=C1/C(=C/c2ccco2)NC(=S)N1CN1CCCCC1
GI50 (Hs-578T): 83.6 µM (inactive)

Cn1c(=O)c2c(ncn2Cc2ccc(O)c([N+](=O)[O-])c2)n(C)c1=O
GI50 (T47D): > 100 µM (inactive) | GI50 (BT-549): > 100 µM (inactive) | GI50 (Hs-578T): > 100 µM (inactive)

COc1ccc(/C=N/N=C(\N)NO)c(OC)c1OC
GI50 (T47D): 28.1 µM (inactive) | GI50 (Hs-578T): > 100 µM (inactive)

CC1CC/C(=C\c2ccc(F)cc2)C2=C1C(c1ccc(F)cc1)NC(=S)N2 (stereo not given)
GI50 (T47D): 12.9 µM (inactive) | GI50 (BT-549): 35.1 µM (inactive) | GI50 (Hs-578T): > 100 µM (inactive)

N#CC1=C(N)N2C(=O)/C(=C/c3ccccc3O)N=C2S1
GI50 (T47D): > 100 µM (inactive) | GI50 (Hs-578T): 31.3 µM (inactive)

O=C(NN=C1CCN(Cc2ccccc2)CC1)C(O)(c1ccccc1)c1ccccc1
GI50 (T47D): > 100 µM (inactive) | GI50 (Hs-578T): > 100 µM (inactive)

CCC1(c2ccc(OC)c(OC)c2)CCN2C(=O)C(O)CC21 (stereo not given)
GI50 (T47D): > 100 µM (inactive) | GI50 (BT-549): > 100 µM (inactive)

CN(/N=C/c1ccccc1C(=O)O)C1=NCCCCN1
GI50 (T47D): > 100 µM (inactive) | GI50 (BT-549): > 100 µM (inactive) | GI50 (Hs-578T): > 100 µM (inactive)

CSC(=S)Nc1cc(C)ccn1
GI50 (T47D): 58.9 µM (inactive) | GI50 (Hs-578T): > 100 µM (inactive)

O=C(OCc1ccccc1)c1ccccc1-c1c2ccc(=O)cc-2oc2cc(OCc3ccccc3)ccc12
GI50 (SNB-78): 22.6 µM (inactive) | GI50 (KM-20L2): 14.6 µM (inactive) | GI50 (DLD-1): 5.01 µM (inactive)

CCOc1ccc2nc3cc(/N=N/c4ccc(N)nc4N)ccc3c(N)c2c1
GI50 (T47D): 1.67 µM (inactive) | GI50 (BT-549): 13.4 µM (inactive) | GI50 (Hs-578T): 3.13 µM (inactive)

CC(=O)NC(Cc1ccc(OP(=O)(OCc2ccc([N+](=O)[O-])o2)N(C)CCCCCl)cc1)C(=O)NC(C)c1ccc(OCC2CCCCC2)c(C(N)=O)c1 (stereo not given)
GI50 (T47D): 2.76 µM (inactive) | GI50 (Hs-578T): 2.14 µM (inactive)

COC(=O)C(=O)C(C(=O)C(=O)Nc1cccc(OC)c1)c1nc2ccc(Cl)cc2nc1O (stereo not given)
GI50 (T47D): > 100 µM (inactive) | GI50 (BT-549): > 100 µM (inactive) | GI50 (Hs-578T): 72.4 µM (inactive)

COC(=O)[C@@H]1CC(C(C[N+](=O)[O-])c2ccc(O[Si](C)(C)C(C)(C)C)cc2)C(=O)N1C(=O)OC(C)(C)C (stereo not given in full)
GI50 (T47D): 22.1 µM (inactive) and 32.5 µM (inactive) | GI50 (Hs-578T): > 100 µM (inactive)

O=[N+]([O-])c1cnc(N(CCO)CCO)s1
GI50 (T47D): > 100 µM (inactive)

NCCN1CCCCCc2ccccc21
GI50 (T47D): > 10 µM (inactive) | GI50 (Hs-578T): > 10 µM (inactive)

C/C=C/[P+](c1ccccc1)(c1ccccc1)c1ccccc1
GI50 (T47D): 0.163 µM (active) | GI50 (BT-549): 0.277 µM (active) | GI50 (Hs-578T): 0.337 µM (active)

COc1ccc(C(=O)/C=C/c2ccc(OCCSCCCCCCCCCCSCCOc3ccc(/C=C/C(=O)c4ccc(OC)c(OC)c4)cc3)cc2)cc1OC
GI50 (T47D): > 100 µM (inactive) | GI50 (BT-549): > 100 µM (inactive) | GI50 (Hs-578T): > 100 µM (inactive)

COc1ccc(/C=C2\N/C(=N/N)N=C2Cl)cc1
GI50 (T47D): > 100 µM (inactive) | GI50 (Hs-578T): > 100 µM (inactive)

CC(C)=CCC/C(C)=C/Cc1c2c(c3oc(-c4ccc(O)c(O)c4)c(O)c(=O)c3c1O)C=CC(C)(C)O2
GI50 (T47D): 1.65 µM (inactive) | GI50 (BT-549): 7.66 µM (inactive) | GI50 (Hs-578T): 9.46 µM (inactive)

CC(=O)OC12CC[N+]3(C)CCCCC3C1=Nc1ccccc12 (stereo not given)
GI50 (T47D): > 100 µM (inactive) | GI50 (BT-549): > 100 µM (inactive) | GI50 (Hs-578T): > 100 µM (inactive)

CCCCCCCCCCCCCCCCOCC(Cl)CP(=O)(O)OP(=O)(O)OCC1OC(n2cnc3c(N)ncnc32)C(O)C1O (stereo not given)
GI50 (T47D): > 100 µM (inactive) | GI50 (BT-549): > 100 µM (inactive) | GI50 (Hs-578T): > 100 µM (inactive)

CCC(CCCCC1CC[C@H]2CC(=O)C[C@@H]12)OC (stereo not given in full)
GI50 (T47D): > 100 µM (inactive) | GI50 (BT-549): > 100 µM (inactive)

C=C1C(=O)O[C@@H]2/C=C(/C)[C@@H](OC(C)=O)C[C@@H](O)/C(C)=C\[C@@H](OC(=O)[C@]3(C)O[C@@H]3C)[C@@H]12
GI50 (T47D): 11.1 µM (inactive) | GI50 (BT-549): 5.83 µM (inactive) | GI50 (Hs-578T): 42.6 µM (inactive)

CN(C)Cc1cc(C(=O)/C=C/c2ccc(Cl)cc2Cl)cc(CN(C)C)c1O
GI50 (T47D): 5.01 µM (inactive) | GI50 (Hs-578T): 3.82 µM (inactive)

C[C@@H]1C[C@H](O)[C@]2(O)O[C@@H]3C[C@@]4(C=O)[C@@H](CC[C@@H]5[C@@H]4CC[C@]4(C)[C@@H](C6=CC(=O)OC6)CC[C@]54O)C[C@H]3O[C@@H]2O1 [CALOTROPIN]
GI50 (T47D): 0.0303 µM (active) | GI50 (BT-549): 0.0231 µM (active) | GI50 (Hs-578T): 0.0263 µM (active)
